# Data: patent publication US3988466A, “Prevention of gastric lesions” (priority 1973, dated 1976)
# What was measured:
# [1] = tested on: indomethacin-induced gastric lesions in pylorus-ligated rats; test: Effect of L-glutamine on indomethacin-induced gastric lesions in pylorus-ligated rats (Experiment 2); format: in vivo, male Donryu strain rats; conditions: for Ulcer index / Inhibition: indomethacin 20 mg/kg i.p.; for Inhibition: vs control ulcer index
# Experimental: In this Experiment, 8 groups of male Donryu strain rats are used. The animals are fasted for 24 hours but water is allowed ad libitum. Under ether anesthesia, the pylorus is ligated according to the standard method of Shay et al. Seven groups are treated with graded doses of L-glutamine suspended in 1% carboxymethylcellulose solution by oral administration immediately after the pylorus ligation. An eighth group (control) is treated with 5 ml/kg of 1% carboxymethylcellulose solution alone. Following a control period of 10 minutes, the animals are treated with 20 mg/kg of indomethacin suspended in a trace amount of Tween 80 (trade name of Atlas Chemical Industries Inc., U.S.A.) by intraperitoneal injection. Thereafter, the animals are treated in the same manner as described in Experiment 1 and the length of lesions is measured.
# [2] = tested on: experimental ulcers; conditions: induced by stress, pylorus ligation, histamine, reserpine or cortisone; cited from earlier work
# [3] = tested on: yeast-induced fever in rats; test: Effect of L-glutamine on antipyretic activity of aspirin in rats (Experiment B); format: in vivo, male Wistar strain rats; conditions: for Rectal temperature: L-glutamine 1000 mg/kg oral
# Experimental: In this Experiment, male Wistar strain rats weighing about 90-100 g are treated with 2.5 ml/rat of a suspension of yeast (Brewers Yeast, product of Nutritional Biochem. Co., U.S.A.) in physiological saline (concentration: 250 mg/ml), by subcutaneous injection in the back, according to the method of Gleen et al [Gleen, E. M. et al: J. Pharma. Exp. Therp., 155, 157 (1967)]. The animals are then fasted. The animals showing an increased rectal temperature of 38° C or more after 17 hours are selected for use in experiment. […] As a control, one group is treated with 105 ml of 1% carboxymethylcellulose solution alone. After the treatment, the rectal temperature is measured at the time indicated.
# [4] = tested on: acetic acid-induced writhing response in mice; test: Effect of L-glutamine on analgesic activity of aspirin in mice (Experiment C); format: in vivo, male dd strain mice; conditions: presence of L-glutamine
# Experimental: In this Experiment, 3 groups of male dd strain mice weighing 19-21 g are used.
# As a control, the third group is treated only with 1% carboxymethylcellulose solution. After a control period of one hour, the animals are treated with 0.2 ml of 0.7% acetic acid solution in physiological saline by intraperitoneal injection, according to the method of Koster et al. [Koster, R. et al: Fed. Proc., 18, 412 (1959)]. Starting 10 minutes after the administration of acetic acid, the number of writhing reaction occurred in 10 minutes is counted.
# [5] = tested on: aspirin-induced gastric lesions in pylorus-ligated rats; test: Effect of various amino acids on aspirin-induced gastric lesions in pylorus-ligated rats (Experiment 3); format: in vivo, male Donryu strain rats
# [6] = tested on: carageenin-induced paw edema in rats; test: Effect of L-glutamine on anti-inflammatory activity of aspirin in rats (Experiment D); format: in vivo, male Donryu strain rats
# Experimental: As a control, a sixth group is treated with 1% carboxymethylcellulose solution. After one hour, the animals are treated with a phlogistic agent of 0.1 ml of 1% carrageenin solution by subcutaneous injection in a hind paw, according to the method of Yamasaki et al. [Yamasaki, H. et al: Folia Pharm. Jap., 63, 302 (1967)]. Swelling of the paw is measured 5 hours after the administration of the phlogistic agent.
# [7] = pH of amino acids in 1% carboxymethylcellulose solution; format: physicochemical; conditions: 150 mg/ml in 1% carboxymethylcellulose solution
# Experimental: The pH values of the amino acids are also determined. The amino acids are separately dissolved or suspended in 1% carboxymethylcellulose solution at a concentration of 150 mg/ml and the pH is measured on an Hitachi pH meter (product of Hitachi Ltd., Japan).
# [8] = Effect of L-glutamine on absorption of aspirin in rats (plasma salicylate level; Experiment A); format: in vivo, male Wistar strain rats; conditions: L-glutamine administered together with aspirin
# Experimental: In this Experiment, 2 groups of male Wistar strain rats weighing about 280-320 g, each consisting of 12 animals are fixed in supine position. Under ether anesthesia, the carotid artery is cannulated for blood sampling. Upon recovery from the anesthesia, one group is treated with 1000 mg/kg of L-glutamine suspended in 1% carboxymethylcellulose solution and the other group (control) with 5 ml/kg of 1% carboxymethylcellulose solution alone, by oral administration. […] The same treatments are applied also to 2 groups of pylorus-ligated rats, each consisting of 5 animals.
# The blood sample is centrifuged at 8,000 r.p.m. for 5 minutes and 20 μl of plasma is collected for the measurement of salicylate concentration. Salicylate concentration of plasma is determined according to the method of Lever & Powell [Lever, M. and Powell, J. C.: Biochem. Med., 7, 203 (1973)].
# [9] = L-glutamine 1000 mg/kg oral, 5 hours after phlogistic agent
smiles,measurement,setting,value
NC(=O)CC[C@H](N)C(=O)O [L-glutamine],effect on the prevention of indomethacin-induced gastric lesions,[1]; L-glutamine 15.6 mg/kg,no effect
same,Ulcer index,[1]; L-glutamine 15.6 mg/kg oral,12.1±3.5 mm
same,Inhibition,[1]; L-glutamine 15.6 mg/kg oral,3.2%
same,inhibition of gastric lesions (in words),[1]; L-glutamine 31.3 mg/kg,fairly inhibits the gastric lesions but the inhibition is not significant
same,Ulcer index,[1]; L-glutamine 31.3 mg/kg oral,5.0±1.1 mm
same,Inhibition,[1]; L-glutamine 31.3 mg/kg oral,60.0%
same,prevention of indomethacin-induced gastric lesions,[1]; L-glutamine 62.5 mg/kg - 1000 mg/kg,effective for the prevention of indomethacin-induced gastric lesions
same,Ulcer index,[1]; L-glutamine 62.5 mg/kg oral,2.6±0.8 mm
same,Inhibition,[1]; L-glutamine 62.5 mg/kg oral,79.2%
same,Ulcer index,[1]; L-glutamine 125 mg/kg oral,3.9±1.5 mm
same,Inhibition,[1]; L-glutamine 125 mg/kg oral,68.8%
same,Ulcer index,[1]; L-glutamine 250 mg/kg oral,2.4±0.4 mm
same,Inhibition,[1]; L-glutamine 250 mg/kg oral,80.8%
same,Ulcer index,[1]; L-glutamine 500 mg/kg oral,1.6±0.7 mm
same,Inhibition,[1]; L-glutamine 500 mg/kg oral,87.2%
same,Ulcer index,"[1]; L-glutamine 1,000 mg/kg oral",0.5±0.3 mm
same,Inhibition,"[1]; L-glutamine 1,000 mg/kg oral",96.0%
same,prevention or treatment of certain experimental ulcers,[2],effective for the prevention or treatment of certain experimental ulcers
same,Rectal temperature,[3]; 0 hour,38.6±0.2 °C
same,Rectal temperature,[3]; 1 hour,38.5±0.2 °C
same,Rectal temperature,[3]; 2 hours,38.2±0.3 °C
same,Rectal temperature,[3]; 4 hours,38.1±0.4 °C
same,Rectal temperature,[3]; 6 hours,38.2±0.3 °C
same,influence on antipyretic activity of aspirin,[3]; presence of L-glutamine,not substantially influenced
same,influence on analgesic activity of aspirin,[4],not substantially influenced
same,inhibition in vivo at 750 mg/kg,"[5]; Rattus norvegicus, po, read-out: Inhibition",87.8%
same,Ulcer index,"[5]; amino acid 750 mg/kg oral, aspirin by gastric intubation",5.5±2.0 mm
same,Suppression ratio,[6]; [9],5.4%
same,Swelling ratio,[6]; [9],117.2±4.7%
same,influence on anti-inflammatory activity of aspirin,[6]; presence of L-glutamine,not substantially influenced
same,Amino acid pH,[7],6.65
same,effect on absorption of aspirin (in words),[8],does not inhibit the absorption of aspirin
